In patent publication US5747456A, “Continuous low-dose administration of parathyroid hormone or its agonist” (Beth Israel Deaconess Medical Center, priority 1996, dated 1998):

Assays:
[1] = tested on: bone growth; experiment: Continuous infusion of hPTH1-34 in post-menopausal women with osteoporosis (Example 5); type: in vivo, human; conditions: continuous infusion 25 to 400 units/24 hrs by infusion pump, twelve months
Method: The anabolic efficacy of the PTH/PTHrP agonists are tested in humans (Review in Dempster D. W., et al., Endocrine Rev., 1993, 14, 690-709). To determine if continuous administration of hPTH1-34 or its agonist is effective in promoting bone growth in humans, 30 post-menopausal women with established osteoporosis based on bone-density measurements are selected. A double-blind, placebo-controlled, randomized experiment is conducted where two groups of 15 women each are either placed on placebo treatment or continuous infusion of a defined dose of hPTH1-34 (25 units to 400 units/24 hrs) using an infusion pump.
The patients prior to the study are subject to the following: complete health and physical examination, evaluation of the nutritional status (particularly of calcium intake and serum calcium), full analysis of biomarkers for bone-turnover (Riis, B. J., Amer. J. Med. 1993, 95 [Suppl 5A], 17s-21s; Delmas, P. D., Amer. J. Med., […], 91 [Suppl 5B], 59s-63s), radiology, bone mass measurements of vertebral and axial sites (Gerant, H. K., et al., Amer. J. Med., 1991, 91 [Suppl 5B], 49s-53s; Wasnich, R. D., Amer J Med, 1991, 91 [Suppl 5B], 54s-58s) and bone biopsy, to establish the baseline parameters for each individual. […]

[2] = tested on: osteoblast activity; conditions: intravenous infusion 0.55 U/kg/hr continuously for 24 hours, cited from earlier work

hPTH1-34: synthetic amino-terminal fragment of PTH1-84 (human parathyroid hormone)
bone mass measurements and bone biopsy [1]: clear indication of bone growth | blood levels of ionized calcium ([2]; humans): increase | serum levels of collagen type I ([2]; within 16 hours of infusion, six osteoporotic and two normal subjects): decreased
